Assay results: US20170129916A1, “NOVEL BETULINIC PROLINE IMIDAZOLE DERIVATIVES AS HIV INHIBITORS” (HETERO RESEARCH FOUNDATION, priority 2014, published 2017)

Key:
[1] = tested on: HIV-1 strains, for e.g., 92HT599; assay: Antiviral activity: p24 estimation in MT-2 cells infected with HIV-1; type: cell-based; conditions: Human immunodeficiency virus 1, MT2, MT-2 cells infected with HIV-1, p24, ~96 hours; for IC50: read-out: Antiviral activity IC50 (nM) Efficacy IC50
Summary of the method: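 MT-2 cells infected with HIV-1 (e.g. 92HT599), plated at 30,000 cells/well with compound (DMSO ≤1%) and incubated ~96 h. Supernatant p24 quantified by kit; percent inhibition relative to vehicle controls.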

[2] = Single dose oral pharmacokinetic study; type: in vivo; conditions: mouse, mice, 30 mg/kg, plasma; for AUC(0-t): read-out: Mice oral PK @30 mg/kg AUC 0-t; for Cmax: read-out: Mice oral PK @30 mg/kg Cmax
Summary of the method: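 Rats or mice received 30 mg/kg orally at 10 ml/kg dose volume. Retro-orbital blood was taken into K3 EDTA at defined intervals under light ether anesthesia and centrifuged to plasma. Plasma levels were measured by LC-MS-MS.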

**Q.** What does the source list for `C=C(C)[C@@H]1CC[C@]2(C(=O)N3CCC[C@H]3c3nc4ccccc4[nH]3)CC[C@]3(C)[C@H](CC[C@@H]4[C@@]5(C)CC[C@H](OC(=O)[C@H]6C[C@@H](C(=O)O)C6(C)C)C(C)(C)[C@@H]5CC[C@]43C)[C@@H]12` [Compound 37]?
**A.** inhibition at 0.1 µM [1]: 99%; inhibition at 1 µM [1]: 99%; IC50 [1]: 3.21 nM; AUC(0-t) [2]: 487 µg·h/mL; Cmax [2]: 16.8 µg/mL

**Q.** For `C=C(C)[C@@H]1CC[C@]2(C(=O)N3C[C@H](OCCOC)C[C@H]3c3nc(-c4ccccc4)c[nH]3)CC[C@]3(C)[C@H](CC[C@@H]4[C@@]5(C)CC[C@H](OC(=O)CC(C)(C)C(=O)O)C(C)(C)[C@@H]5CC[C@]43C)[C@@H]12` [Compound 43, 4-(((1R,3aS,5aR,5bR,7aR,9S,11aR,11bR,13aR,13bR)-3a-((2S,4R)-4-(2-methoxyethoxy)-2-(4-phenyl-1H-imidazol-2-yl)pyrrolidine-1-carbonyl)-5a,5b,8,8,11a-pentamethyl-1-(prop-1-en-2-yl)icosahydro-1H-cyclopenta[a]chrysen-9-yl)oxy)-2,2-dimethyl-4-oxobutanoic acid], which IC50 [1] is on record?
**A.** 0.3 nM

**Q.** What about the AUC(0-t) [2] of the same compound?
**A.** 333 µg·h/mL

**Q.** And the Cmax [2]?
**A.** 15.4 µg/mL

**Q.** With `C=C(C)[C@@H]1CC[C@]2(C(=O)N3C[C@H](OCCOC)C[C@H]3c3nc(-c4ccc(F)cc4)c[nH]3)CC[C@]3(C)[C@H](CC[C@@H]4[C@@]5(C)CC[C@H](OC(=O)CC(C)(C)C(=O)O)C(C)(C)[C@@H]5CC[C@]43C)[C@@H]12` [Compound 45, 4-(((1R,3aS,5aR,5bR,7aR,9S,11aR,11bR,13aR,13bR)-3a-((2S,4R)-2-(4-(4-fluorophenyl)-1H-imidazol-2-yl)-4-(2-methoxyethoxy)pyrrolidine-1-carbonyl)-5a,5b,8,8,11a-pentamethyl-1-(prop-1-en-2-yl)icosahydro-1H-cyclopenta[a]chrysen-9-yl)oxy)-2,2-dimethyl-4-oxo butanoic acid] as the compound, how does the IC50 [1] read?
**A.** 0.3 nM

**Q.** What about the AUC(0-t) [2] of the same compound?
**A.** 275 µg·h/mL

**Q.** And the Cmax [2]?
**A.** 11.5 µg/mL

**Q.** Which IC50 [1] does the source give for `C=C(C)[C@@H]1CC[C@]2(C(=O)N3CCC[C@H]3c3ncc(-c4ccc(OC)cc4)[nH]3)CC[C@]3(C)[C@H](CC[C@@H]4[C@@]5(C)CC[C@H](OC(=O)CC(C)(C)C(=O)O)C(C)(C)[C@@H]5CC[C@]43C)[C@@H]12` [Compound 46, 4-(((1R,3aS,5aR,5bR,7aR,9S,11aR,11bR,13aR,13bR)-3a-((S)-2-(5-(4-methoxyphenyl)-1H-imidazol-2-yl)pyrrolidine-1-carbonyl)-5a,5b,8,8,11a-pentamethyl-1-(prop-1-en-2-yl)icosahydro-1H-cyclopenta[a]chrysen-9-yl)oxy)-2,2-dimethyl-4-oxobutanoic acid] here?
**A.** 11 nM

**Q.** What about the AUC(0-t) [2] of the same compound?
**A.** 153 µg·h/mL

**Q.** What about the Cmax [2] of the same compound?
**A.** 8.71 µg/mL

**Q.** Which IC50 [1] does the source give for `C=C(C)[C@@H]1CC[C@]2(C(=O)N3CCC[C@H]3c3nnc(-c4ccccc4)[nH]3)CC[C@]3(C)[C@H](CC[C@@H]4[C@@]5(C)CC[C@H](OC(=O)CC(C)(C)C(=O)O)C(C)(C)[C@@H]5CC[C@]43C)[C@@H]12` [Compound 48, 2,2-dimethyl-4-oxo-4-(((1R,3aS,5aR,5bR,7aR,9S,11aR,11bR,13aR,13bR)-5a,5b,8,8,11a-pentamethyl-3a-((S)-2-(5-phenyl-4H-1,2,4-triazol-3-yl)pyrrolidine-1-carbonyl)-1-(prop-1-en-2-yl)icosahydro-1H-cyclopenta[a]chrysen-9-yl)oxy)butanoic acid] here?
**A.** 5.8 nM

**Q.** What about the AUC(0-t) [2] of the same compound?
**A.** 299 µg·h/mL

**Q.** And the Cmax [2]?
**A.** 20.8 µg/mL

**Q.** Which IC50 [1] does the source give for `CC1([C@@H]2CC[C@]3(C(=O)N4CCC[C@H]4c4ncc(-c5cccc(F)c5)[nH]4)CC[C@]4(C)[C@H](CC[C@@H]5[C@@]6(C)CC[C@H](OC(=O)[C@H]7C[C@@H](C(=O)O)C7(C)C)C(C)(C)[C@@H]6CC[C@]54C)[C@@H]23)CC1` [Compound 50, (1R,3S)-3-((((1R,3aS,5aR,5bR,7aR,9S,11aR,11bR,13aR,13bR)-3a-((S)-2-(5-(3-fluorophenyl)-1H-imidazol-2-yl)pyrrolidine-1-carbonyl)-5a,5b,8,8,11a-pentamethyl-1-(1-methylcyclopropyl)icosahydro-1H-cyclopenta[a]chrysen-9-yl)oxy)carbonyl)-2,2-dimethylcyclobutane-1-carboxylic acid] here?
**A.** 0.35 nM

**Q.** What about the AUC(0-t) [2] of the same compound?
**A.** 358 µg·h/mL

**Q.** And the Cmax [2]?
**A.** 13.9 µg/mL

**Q.** With `CC1([C@@H]2CC[C@]3(C(=O)N4CCC[C@H]4c4ncc(-c5ccccn5)[nH]4)CC[C@]4(C)[C@H](CC[C@@H]5[C@@]6(C)CC[C@H](OC(=O)[C@H]7C[C@@H](C(=O)O)C7(C)C)C(C)(C)[C@@H]6CC[C@]54C)[C@@H]23)CC1` [Compound 51, (1R,3S)-2,2-dimethyl-3-((((1R,3aS,5aR,5bR,7aR,9S,11aR,11bR,13aR,13bR)-5a,5b,8,8,11a-pentamethyl-1-(1-methylcyclopropyl)-3a-((S)-2-(5-(pyridin-2-yl)-1H-imidazol-2-yl)pyrrolidine-1-carbonyl)icosahydro-1H-cyclopenta[a]chrysen-9-yl)oxy)carbonyl)cyclobutane-1-carboxylic acid] as the compound, how does the IC50 [1] read?
**A.** 43.3 nM

**Q.** And the AUC(0-t) [2]?
**A.** 160 µg·h/mL

**Q.** And the Cmax [2]?
**A.** 4.93 µg/mL

**Q.** Which IC50 [1] does the source give for `COCCO[C@@H]1C[C@@H](c2nc(-c3ccc(F)cc3)c[nH]2)N(C(=O)[C@]23CC[C@@H](C4(C)CC4)[C@@H]2[C@H]2CC[C@@H]4[C@@]5(C)CC[C@H](OC(=O)[C@H]6C[C@@H](C(=O)O)C6(C)C)C(C)(C)[C@@H]5CC[C@@]4(C)[C@]2(C)CC3)C1` [Compound 55, (1R,3S)-3-((((1R,3aS,5aR,5bR,7aR,9S,11aR,11bR,13aR,13bR)-3a-((2S,4R)-2-(4-(4-fluorophenyl)-1H-imidazol-2-yl)-4-(2-methoxyethoxy)pyrrolidine-1-carbonyl)-5a,5b,8,8,11a-pentamethyl-1-(1-methylcyclopropyl)icosahydro-1H-cyclopenta[a]chrysen-9-yl)oxy)carbonyl)-2,2-dimethylcyclobutane-1-carboxylic acid] here?
**A.** 1.04 nM

**Q.** And the AUC(0-t) [2]?
**A.** 381 µg·h/mL

**Q.** What about the Cmax [2] of the same compound?
**A.** 14.3 µg/mL

**Q.** Which results are given for `CC(C)(C)c1c[nH]c([C@@H]2CCCN2C(=O)[C@]23CC[C@@H](C4(C)CC4)[C@@H]2[C@H]2CC[C@@H]4[C@@]5(C)CC[C@H](OC(=O)[C@H]6C[C@@H](C(=O)O)C6(C)C)C(C)(C)[C@@H]5CC[C@@]4(C)[C@]2(C)CC3)n1` [Compound 56, (1R,3S)-3-((((1R,3aS,5aR,5bR,7aR,9S,11aR,11bR,13aR,13bR)-3a-((S)-2-(4-(tert-butyl)-1H-imidazol-2-yl)pyrrolidine-1-carbonyl)-5a,5b,8,8,11a-pentamethyl-1-(1-methylcyclopropyl)icosahydro-1H-cyclopenta[a]chrysen-9-yl)oxy)carbonyl)-2,2-dimethylcyclobutane-1-carboxylic acid]?
**A.** IC50 [1]: 56.2 nM; AUC(0-t) [2]: 375 µg·h/mL; Cmax [2]: 12 µg/mL

**Q.** With `CC1([C@@H]2CC[C@]3(C(=O)N4CCC(c5ncc(-c6ccccc6)[nH]5)CC4)CC[C@]4(C)[C@H](CC[C@@H]5[C@@]6(C)CC[C@H](OC(=O)[C@H]7C[C@@H](C(=O)O)C7(C)C)C(C)(C)[C@@H]6CC[C@]54C)[C@@H]23)CC1` [Compound 57, (1R,3S)-2,2-dimethyl-3-((((1R,3aS,5aR,5bR,7aR,9S,11aR,11bR,13aR,13bR)-5a,5b,8,8,11a-pentamethyl-1-(1-methylcyclopropyl)-3a-(4-(5-phenyl-1H-imidazol-2-yl)piperidine-1-carbonyl)icosahydro-1H-cyclopenta[a]chrysen-9-yl)oxy)carbonyl)cyclobutane-1-carboxylic acid] as the compound, how does the IC50 [1] read?
**A.** 4.42 nM

**Q.** What about the AUC(0-t) [2] of the same compound?
**A.** 66.4 µg·h/mL

**Q.** What about the Cmax [2] of the same compound?
**A.** 2.79 µg/mL

**Q.** What does the source list for `CC1([C@@H]2CC[C@]3(C(=O)N4CCC[C@H]4c4ncc(C(F)(F)F)[nH]4)CC[C@]4(C)[C@H](CC[C@@H]5[C@@]6(C)CC[C@H](OC(=O)[C@H]7C[C@@H](C(=O)O)C7(C)C)C(C)(C)[C@@H]6CC[C@]54C)[C@@H]23)CC1` [Compound 59, (1R,3S)-2,2-dimethyl-3-((((1R,3aS,5aR,5bR,7aR,9S,11aR,11bR,13aR,13bR)-5a,5b,8,8,11a-pentamethyl-1-(1-methylcyclopropyl)-3a-((S)-2-(5-(trifluoromethyl)-1H-imidazol-2-yl)pyrrolidine-1-carbonyl)icosahydro-1H-cyclopenta[a]chrysen-9-yl)oxy)carbonyl)cyclobutane-1-carboxylic acid]?
**A.** inhibition at 0.1 µM [1]: 71%; inhibition at 1 µM [1]: 100%; IC50 [1]: 55.4 nM; AUC(0-t) [2]: 451 µg·h/mL; Cmax [2]: 15.7 µg/mL

**Q.** For `CC(C)(CC(=O)O[C@H]1CC[C@]2(C)[C@H]3CC[C@@H]4[C@H]5[C@H](C6(C)CC6)CC[C@]5(C(=O)N5CCC[C@H]5c5ncc(-c6ccccn6)[nH]5)CC[C@@]4(C)[C@]3(C)CC[C@H]2C1(C)C)C(=O)O` [Compound 62, 2,2-dimethyl-4-oxo-4-(((1R,3aS,5aR,5bR,7aR,9S,11aR,11bR,13aR,13bR)-5a,5b,8,8,11a-pentamethyl-1-(1-methylcyclopropyl)-3a-((S)-2-(5-(pyridin-2-yl)-1H-imidazol-2-yl)pyrrolidine-1-carbonyl)icosahydro-1H-cyclopenta[a]chrysen-9-yl)oxy)butanoic acid], which IC50 [1] is on record?
**A.** 0.8 nM

**Q.** And the AUC(0-t) [2]?
**A.** 93.1 µg·h/mL

**Q.** What about the Cmax [2] of the same compound?
**A.** 7.12 µg/mL
